In brackets after ≈: the same amount, converted by molar mass.

The record followed here is patent US20240317749A1, “THERAPEUTIC COMPOUNDS” (priority 2021, published 2024).

Assay [1] relates to Methicillin-susceptible S. aureus (MSSA) ATCC 19636. The experiment in a line: MIC assay, CLSI broth microdilution in CAMH broth. Format: cell-based, Staphylococcus aureus. (In general: Dilution methods test growth across graded concentrations, often in twofold steps.)
In assay [2] the test system is N. gonorrhoeae ATCC 49226. Kind of assay: MIC assay for N. gonorrhoeae, broth microdilution in Todd-Hewitt (TH) broth. Format: cell-based. The conditions noted are these: Neisseria gonorrhoeae, ATCC49226; Antibacterial Activity against N. gonorrhoeae ATCC 49226 in TH.
Another assay deals with P. mirabilis ATCC 29906. The experiment in a line: MIC assay, CLSI broth microdilution in CAMH broth. Format: cell-based, Proteus mirabilis.
In another assay the test system is K. pneumoniae ATCC 13883. Kind of assay: MIC assay, CLSI broth microdilution in CAMH broth. Format: cell-based, Klebsiella pneumoniae. The conditions noted are these: K. pneumonias ATCC 13883. On the procedure:
(§1) MIC assays for various Gram-negative and Gram-positive strains were conducted in accordance with the CLSI guidelines for broth microdilution. A 96-well plate containing CAMH broth with 2-fold serial dilution of compounds was inoculated with log-phase bacterial at 5×10^5 CFU/mL. The final volume in each well was 100 μL. Each compound was tested in duplicate. The microtiter plates were incubated in an aerobic environment for 18 hours at 37° C. Then the bacterial growth was tested by reading the plate with a SpectraMax iD5 plate reader (Molecular Devices, Inc.) at 600 nm. The MIC was defined as the lowest compound concentration that inhibited bacteria growth.
(§2) The following Gram-negative and Gram-positive strains were used in the aerobic MIC procedure: • P. aeruginosa ATCC 27853 • A. baumannii ATCC 19606 • E. coli ATCC 25922 • E. coli W4573 • E. coli N43 • K. pneumoniae ATCC 10031 • K. pneumoniae ATCC 13883 • S. sonnei ATCC 29930 • P. mirabilis ATCC 29906 • Methicillin-susceptible S. aureus (MSSA) ATCC 19636 • Methicillin-resistant S. aureus (MRSA) ATCC 33951

A further assay deals with K. pneumoniae ATCC 10031. Kind of assay: MIC assay, CLSI broth microdilution in CAMH broth. The class given is cell-based, Klebsiella pneumoniae. The conditions noted are these: K. pneumonias ATCC 10031. On the procedure: as §1, §2
The next assay relates to P. aeruginosa ATCC 27853. The experiment in a line: MIC assay, CLSI broth microdilution in CAMH broth. Format: cell-based, Pseudomonas aeruginosa. The conditions noted are these: P. aeruginosa ATCC 278538. On the procedure:
as §1, §2

In a further assay the test system is E. coli ATCC 25922. The experiment in a line: MIC assay, CLSI broth microdilution in CAMH broth. The class given is cell-based, Escherichia coli. The protocol:
as §1, §2

The test system of another assay is E. coli W4573. Kind of assay: MIC assay, CLSI broth microdilution in CAMH broth. Format: cell-based, Escherichia coli. On the procedure:
as §1, §2

The subject of the next assay is E. coli N43. The experiment in a line: MIC assay, CLSI broth microdilution in CAMH broth. Format: cell-based, Escherichia coli. On the procedure: as §1, §2
The test system of assay [3] is Methicillin-resistant S. aureus (MRSA) ATCC 33591. Kind of assay: MIC assay, CLSI broth microdilution in CAMH broth. Format: cell-based, Staphylococcus aureus.

For the compound `Nc1nc(N)c2ccc3c(ccn3Cc3ccc(Br)cc3)c2n1` [Example 2, 7-(4-bromobenzyl)-7H-pyrrolo[2,3-h]quinazoline-2,4-diamine], the “Intrinsic MIC in CAMH” value in assay [1] is ≤0.25¤; in the assay on P. mirabilis ATCC 29906, 4¤; in the assay on K. pneumoniae ATCC 13883 it was 4¤; in the assay on K. pneumoniae ATCC 10031 it was ≤0.25¤; in the assay on P. aeruginosa ATCC 27853 it was >128¤; in the assay with E. coli ATCC 25922 it was 2¤. The “Intrinsic MIC in CAMH” value was 1¤ with E. coli W4573, ≤0.25¤ in the assay with E. coli N43 and ≤0.25¤ in assay [3]. The minimal inhibitory concentration (MIC) – broadly, the lowest concentration found to suppress growth – in assay [2] is 2 µg/mL (≈ 5.43 µM).
Regarding `Nc1nc(N)c2ccc3c(ccn3Cc3cccc(Br)c3)c2n1` [Example 3, 7-(3-bromobenzyl)-7H-pyrrolo[2,3-h]quinazoline-2,4-diamine], the “Intrinsic MIC in CAMH” value in [1] was 2¤; with P. mirabilis ATCC 29906, >64¤; in the assay with K. pneumoniae ATCC 13883, >64¤; with K. pneumoniae ATCC 10031 it was 4¤; in the assay on P. aeruginosa ATCC 27853 it was >64¤; in the assay with E. coli ATCC 25922, 32¤. For the same compound, the entries for the “Intrinsic MIC in CAMH” value (in the assay on E. coli W4573; with E. coli N43; in assay [3]) were >64¤, 1¤ and 2¤, respectively. The same compound gave an MIC in [2] of 0.5 µg/mL (≈ 1.36 µM).
Turning to `N#Cc1cccc(Cn2ccc3c4nc(N)nc(N)c4ccc32)c1` [Example 6, 3-((2,4-diamino-7H-pyrrolo[2,3-h]quinazolin-7-yl)methyl)benzonitrile], the “Intrinsic MIC in CAMH” value is 0.5¤ in assay [1]; >64¤ in the assay on P. mirabilis ATCC 29906; 16¤ in the assay on K. pneumoniae ATCC 13883; ≤0.125¤ in the assay on K. pneumoniae ATCC 10031; >64¤ with P. aeruginosa ATCC 27853; 4¤ in the assay on E. coli ATCC 25922. The “Intrinsic MIC in CAMH” value is 4¤ in the assay with E. coli W4573, ≤0.015¤ in the assay on E. coli N43 and 0.5¤ in [3]. This compound gave an MIC in [2] of 4 µg/mL (≈ 12.7 µM).
On to `Nc1nc(N)c2ccc3c(ccn3Cc3ccc(C(F)(F)F)cc3)c2n1` [Example 7, 7-(4-(trifluoromethyl)benzyl)-7H-pyrrolo[2,3-h]quinazoline-2,4-diamine], for which the “Intrinsic MIC in CAMH” value in assay [1] is listed as ≤0.25¤; with P. mirabilis ATCC 29906 it was >64¤; with K. pneumoniae ATCC 13883, 8¤; in the assay with K. pneumoniae ATCC 10031, ≤0.125¤; in the assay with P. aeruginosa ATCC 27853, >64¤; in the assay on E. coli ATCC 25922, 2¤. Further, the results for the “Intrinsic MIC in CAMH” value (in the assay with E. coli W4573; in the assay with E. coli N43; in [3]) were 2¤, ≤0.015¤ and ≤0.25¤, respectively. The minimal inhibitory concentration (MIC) in assay [2] was determined as 2 µg/mL (≈ 5.6 µM).
With `Nc1nc(N)c2ccc3c(ccn3Cc3ccc(C(=O)c4ccccc4)cc3)c2n1` [Example 16, (4-((2,4-diamino-7H-pyrrolo[2,3-h]quinazolin-7-yl)methyl)phenyl)(phenyl)methanone], the “Intrinsic MIC in CAMH” value in assay [1] is on record as ≤0.25¤; in the assay with P. mirabilis ATCC 29906, >64¤; with K. pneumoniae ATCC 13883, >64¤; in the assay with K. pneumoniae ATCC 10031, ≤0.125¤; in the assay with P. aeruginosa ATCC 27853 it was >64¤; with E. coli ATCC 25922 it was 4¤. Also, the “Intrinsic MIC in CAMH” value in the assay with E. coli W4573 is 2¤; in the assay with E. coli N43 it was ≤0.015¤; in [3], ≤0.25¤. Further, in assay [2], the minimum inhibitory concentration (MIC) amounted to 4 µg/mL (≈ 10.2 µM).
Turning to `Nc1nc(N)c2ccc3c(ccn3Cc3ccc4ccccc4c3)c2n1` [Example 21, 7-(naphthalen-2-ylmethyl)-7H-pyrrolo[2,3-h]quinazoline-2,4-diamine], the “Intrinsic MIC in CAMH” value was 4¤ in assay [1]; >64¤ in the assay on P. mirabilis ATCC 29906; >64¤ in the assay with K. pneumoniae ATCC 13883; 8¤ in the assay with K. pneumoniae ATCC 10031; >128¤ in the assay on P. aeruginosa ATCC 27853; >64¤ in the assay with E. coli ATCC 25922. Further, the figures for the “Intrinsic MIC in CAMH” value (in the assay with E. coli W4573; with E. coli N43; in assay [3]) were >64¤, 8¤ and 4¤, respectively. The MIC in [2] was 2 µg/mL (≈ 5.89 µM).
For `Nc1nc(N)c2ccc3c(ccn3C3C=CCCC3)c2n1` (centres unmarked) [Example 26, 7-(cyclohex-2-en-1-yl)-7H-pyrrolo[2,3-h]quinazoline-2,4-diamine], the “Intrinsic MIC in CAMH” value in [1] is given as 1¤; in the assay on P. mirabilis ATCC 29906, >64¤; in the assay on K. pneumoniae ATCC 13883, 64¤; with K. pneumoniae ATCC 10031, 2¤; in the assay on P. aeruginosa ATCC 27853, >128¤; in the assay on E. coli ATCC 25922 it was 16¤. Also, the “Intrinsic MIC in CAMH” value with E. coli W4573 is 16¤; in the assay on E. coli N43, <0.125¤; in assay [3], 1¤. The compound also gave a minimum inhibitory concentration (MIC) in assay [2] of 4 µg/mL (≈ 14.3 µM).
Consider `Cc1cc2c3nc(N)nc(N)c3ccc2n1Cc1ccc(-c2ccccc2C#N)cc1` [Example 31, 4′-((2,4-diamino-8-methyl-7H-pyrrolo[2,3-h]quinazolin-7-yl)methyl)-[1,1′-biphenyl]-2-carbonitrile], for which the “Intrinsic MIC in CAMH” value in [1] is 0.25¤; in the assay with P. mirabilis ATCC 29906, >64¤; with K. pneumoniae ATCC 13883, >64¤; in the assay with K. pneumoniae ATCC 10031, 0.5¤; in the assay on P. aeruginosa ATCC 27853, >128¤; in the assay with E. coli ATCC 25922, >64¤. Besides, the “Intrinsic MIC in CAMH” value is recorded as >64¤ in the assay on E. coli W4573, <0.125¤ with E. coli N43 and 0.5¤ in assay [3]. The MIC in assay [2] was 1 µg/mL (≈ 2.47 µM).
`COc1cc(Cc2cnc(N)nc2N)cc(OC)c1OC` [TMP, reference compound]: the “Intrinsic MIC in CAMH” value in assay [1] is 0.5¤; in the assay with P. mirabilis ATCC 29906, 1¤; in the assay on K. pneumoniae ATCC 13883, 2¤; in the assay on K. pneumoniae ATCC 10031, 0.25¤; in the assay on P. aeruginosa ATCC 27853, >64¤; in the assay on E. coli ATCC 25922, 0.5¤. The “Intrinsic MIC in CAMH” value is 0.5¤ with E. coli W4573, <0.125¤ in the assay on E. coli N43 and 0.5¤ in [3].
